Legend:
[1] = biological target: T1, 5-hydroxytryptamine receptor 2A (Homo sapiens, UniProt P28223); experiment: Displacement of [3H]ketanserin from human 5-HT2A receptor
[2] = biological target: T1, 5-hydroxytryptamine receptor 2A; details: CHO
Description: Competitive antagonist activity at human 5-HT2A receptor expressed in CHO cells assessed as inhibition of inositol phosphate release after 30 mins by HTRF assay

[3] = biological target: D(2) dopamine receptor (Homo sapiens) (UniProt P14416); details: CHO
Description: Competitive antagonist activity at human D2 receptor expressed in CHO cells assessed as inhibition of cAMP release after 30 mins by HTRF assay

[4] = biological target: T1, 5-hydroxytryptamine receptor 2A; experiment: Binding affinity for 5-HT2A receptor (unknown origin)

T1 sequence (P28223 whole entry): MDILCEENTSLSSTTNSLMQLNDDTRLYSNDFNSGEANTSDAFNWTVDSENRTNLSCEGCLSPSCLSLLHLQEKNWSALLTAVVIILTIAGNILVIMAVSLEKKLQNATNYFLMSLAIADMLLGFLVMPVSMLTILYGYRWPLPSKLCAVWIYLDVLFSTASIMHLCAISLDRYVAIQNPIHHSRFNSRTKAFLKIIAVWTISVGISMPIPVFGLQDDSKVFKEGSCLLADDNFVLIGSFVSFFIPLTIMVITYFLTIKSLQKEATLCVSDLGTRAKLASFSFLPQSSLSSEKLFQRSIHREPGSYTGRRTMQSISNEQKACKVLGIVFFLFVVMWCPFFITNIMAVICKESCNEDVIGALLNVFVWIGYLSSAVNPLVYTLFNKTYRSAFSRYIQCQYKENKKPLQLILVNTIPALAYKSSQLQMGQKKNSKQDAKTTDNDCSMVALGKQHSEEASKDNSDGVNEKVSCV
Sequence of D(2) dopamine receptor (Homo sapiens) (P14416 whole entry): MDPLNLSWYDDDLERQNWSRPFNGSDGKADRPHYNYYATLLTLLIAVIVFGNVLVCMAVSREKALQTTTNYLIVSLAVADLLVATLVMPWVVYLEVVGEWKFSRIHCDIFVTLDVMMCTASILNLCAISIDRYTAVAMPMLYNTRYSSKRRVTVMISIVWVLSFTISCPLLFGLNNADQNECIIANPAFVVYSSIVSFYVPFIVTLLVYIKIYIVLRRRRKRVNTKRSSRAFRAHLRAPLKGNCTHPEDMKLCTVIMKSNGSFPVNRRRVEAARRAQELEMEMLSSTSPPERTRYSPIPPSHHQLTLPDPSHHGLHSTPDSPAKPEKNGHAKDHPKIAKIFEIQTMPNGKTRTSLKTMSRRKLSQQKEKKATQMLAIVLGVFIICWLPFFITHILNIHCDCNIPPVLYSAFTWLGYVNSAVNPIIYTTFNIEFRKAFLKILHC

Structure (SMILES)	Ki [1]	pKb [2]	pKb [3]	Ki [4]
O=[N+]([O-])c1ccc2c(c1)C(O)C(CCN1CCC(c3noc4cc(F)ccc34)CC1)CC2 (stereo unspecified)	11 nM	–	–	–
Nc1ccc2c(c1)C(=O)C(CCN1CCC(c3noc4cc(F)ccc34)CC1)CC2 (stereo unspecified)	5.01 nM	8.76	7.53	–
COc1ccccc1N1CCN(CCC2CCc3ccc(N)cc3C2=O)CC1 (stereo unspecified)	42.7 nM	–	–	–
COc1ccccc1N1CCN(CCC2CCc3ccc([N+](=O)[O-])cc3C2=O)CC1 (stereo unspecified)	794 nM	–	–	–
O=C1c2cc([N+](=O)[O-])ccc2CCC1CCN1CCC(c2noc3cc(F)ccc23)CC1 (stereo unspecified)	19.1 nM	–	–	–
O=C1CC(CN2CCC(c3noc4cc(F)ccc34)CC2)Cc2ccccc21 (stereo unspecified)	–	–	–	2.75 nM
CC(=O)c1ccc2c(c1)CC(CN1CCC(C(=O)c3ccc(F)cc3)CC1)CC2=O (stereo unspecified)	63.1 nM	–	–	–
CC(=O)c1ccc2c(c1)CC(CN1CCC(c3noc4cc(F)ccc34)CC1)CC2=O (stereo unspecified)	31.6 nM	–	–	–
O=C1CC(CN2CCC(C(=O)c3ccc(F)cc3)CC2)Cc2cc(-c3ccccc3)ccc21 (stereo unspecified)	631 nM	–	–	–
O=C1CC(CN2CCC(c3noc4cc(F)ccc34)CC2)Cc2cc(-c3ccccc3)ccc21 (stereo unspecified)	15.8 nM	7.84	7.55	–
Nc1ccc2c(c1)C(O)C(CCN1CCC(C(=O)c3ccc(F)cc3O)CC1)CC2 (stereo unspecified)	4.47 nM	7.82	6.32	–
COc1ccccc1N1CCN(CCC2CCc3ccc([N+](=O)[O-])cc3C2O)CC1 (stereo unspecified)	513 nM	–	–	–
COc1ccccc1N1CCN(CCC2CCc3ccc(N)cc3C2O)CC1 (stereo unspecified)	158 nM	–	–	–
Nc1ccc2c(c1)C(=O)C(CCN1CCC(C(=O)c3ccc(F)cc3O)CC1)CC2 (stereo unspecified)	23.4 nM	–	–	–
Nc1ccc2c(c1)C(O)C(CCN1CCC(c3noc4cc(F)ccc34)CC1)CC2 (stereo unspecified)	6.61 nM	–	–	–
